Entries after “also recorded” stand apart in the source; their conditions may differ.
Legend:
T-cell = T-cell proliferation (3H thymidine incorporation) of lymph node lymphocytes from mice immunized with MUC1-based liposomal vaccine adjuvanted with Lipid-A analog; format: in vivo, C57-Black mice; settings: for T-cell-Proliferation (CPM): s.c. liposomal vaccine 40 μg BP1-148 + 20 μg Lipid-A analog per dose, nine days after injection, boosting antigen BP1-151; for T-cell blastogenesis: in words, liposomal vaccine formulations in mice, FIG. 31-FIG. 33
Protocol: (§1) Typically, the liposomal formulation was composed of 400 μg of MUC1-based lipopeptide BP1-148, H2N-[…](Pal)G-OH, 200 μg of Lipid-A analog, 6.94 mg of cholesterol, 1.46 mg of dimyristoyl phosphatidylglycerol ([…]) and 11.62 mg of dipalmitoyl phosphatidylcholine (DPPC) per 1 ml of saline (0.9% NaCl solution).
(§2) The liposomal constructs were formulated by first dissolving the phospholipids, cholesterol and Lipid A analog in tert-butanol at about 53° C. Lipopeptide and water (5%, v/v) were then added to the tert-butanol solution. The resulting clear 95% tert-butanol solution was injected into about 4 volumes of rapidly stirred water at about 50° C., using a glass syringe with an 18-gauge needle. The small unilamellar vesicles (SUV) formed in this process were cooled, sterilized by filtration through a 0.22 μm membrane filter, filled into vials and lyophilized. The dry powder was re-hydrated with sterile saline before injection, resulting in the formation of multilamellar large vesicles (MLV). The liposomes formed are used to immunize mice.
(§3) Groups of C57-Black mice were immunized subcutaneously with the liposomal vaccine containing 40 μg of MUC1-based lipopeptide BP1-148 (FIG. 34), which has the peptide sequence of H2N-[…](Pal) G-OH, and 20 μg of Lipid-A analog per dose. Nine days after vaccine injection mice were sacrificed and lymphocytes were taken from the draining lymph nodes (local response) or from the spleens (systemic response) to determine the immune response in each group. The lymphocytes taken from immunized mice were incubated in in vitro cultures in the presence of MUC1-based boosting antigen BP1-151, which has the peptide sequence H2N-[…]-OH.
T-cell proliferation was evaluated using a standard ^3H thymidine incorporation assay. Briefly, nylon wool passed inguinal lymph node lymphocytes from each mouse were added to a culture containing 106 native mitomycin C treated syngeneic splenocytes, which serves as antigen presenting cells (APCs). To each well 20 μg of MUC1-based boosting peptide BP1-151, H2N-[…]-OH (single letter amino acid code, Table 8), was added for positive control; and cultures containing no antigen or peptide BP1-72, which has the peptide sequence H2N-[…]-OH, were used as negative control. The culture was incubated for 72 h in a total volume of 250 μl well, followed by adding 1 μCi of ^3H-thymidine in a volume of 50 μl. The plates were incubated for an additional 18-20 h. Cells were harvested and [^3H]dTh incorporation was measured by liquid scintillation counter. T-cell proliferation results corresponding to various liposomal vaccines adjuvanted, with different Lipid-A analogs are summarized in Tables 1-Table 3 and FIG. 31-FIG. 33.

Interferon-gamma (IFN-γ) = Interferon-gamma (IFN-γ) production in cell culture supernatants by ELISA, lymphocytes of mice immunized with adjuvanted MUC1 liposomal vaccine; format: in vivo, C57-Black mice; settings: for Interferon-gamma (IFN-γ, pg/ml): s.c. liposomal vaccine 40 μg BP1-148 + 20 μg Lipid-A analog per dose, nine days after injection; for interferon-gamma production: in words, liposomal vaccine formulations in mice, FIG. 31-FIG. 33
Protocol: as §1, §2, §3
Interferon-gamma (IFN-γ) levels were determined in the cell culture supernatants using enzyme-linked immunoabsorbent assay (ELISA). 96-Well plates were coated with 50 μl of catcher Mabs in 50 μl of R4.6AZ at 37° C. for 30 min. The plates were then washed and incubated with test samples for 45 min. After two washes the second biotinylated antibody, XMG1.2 was added. After washing, peroxidase-conjugated streptavidin was added and incubated again for 30 min. Finally, 100 μl of horseradish peroxidase (HRPO) substrate solution was added. The optical density was measured with a Thermomax ELISA reader at 405 nm wavelength in kinetic mode for 10 min. The interferon-gamma (IFN-γ) levels corresponding to various Lipid-A analogs are shown in Table 1-Table 3 and FIG. 31-FIG. 33.

[1] = Solubility of Lipid-A analogs for incorporation into liposomes; format: physicochemical; settings: in words; given as cause of poor incorporation into liposomes
C57-Black mice = assay: Lethal toxicity of Lipid-A analogs injected i.p. followed by Actinomycin D; format: in vivo; settings: for No. Survived/No. Tested (+24 h): Actinomycin D +
Protocol: Synthetic Lipid-A analog 86 and the Natural Lipid-A (see Example 95 for more detail) were tested for their lethal toxicity. Test methods and results are summarized below (Table 4) • a) Preparation of Lipid-A analog solution: 1 mg of Lipid-A analog was dissolved in 1 ml of 20% DMSO and diluted with saline to obtain 50 μg, 10 μg and 2 μg doses in 0.5 ml. • b) Preparation of Actinomycin D: 5 mg of Actinomycin D was dissolved in 1 ml of ethanol and diluted with saline to obtain a dose at 550 μg/kg in 0.5 ml. • c) Procedure: Various doses of Lipid-A analogs or solvent as control were injected intraperitoneally (i.p.) into C57-Black mice. Twenty minutes later all groups of mice were injected with 500 μl of Actinomycin D. Mice were then observed for mortality or any other symptoms of toxicity.

[2] = test system: immune response to MUC1-based lipopeptide BP1-148; assay: Adjuvanticity of Lipid-A analogs in liposomal vaccine with MUC1 lipopeptide BP1-148 (T-cell blastogenesis and IFN-γ production); format: in vivo, mice; settings: in words
From the text: Liposome formulations have been used to evaluate the adjuvant properties of various synthetic Lipid-A structures and the immune responses to a synthetic lipopeptide antigen BP-148, H2N-[…](Pal)G-OH (FIG. 34), a modified 25-amino-acid sequence derived from tumor-associated MUC1 mucin. The commercially available Lipid-A product, which is currently under clinical evaluation as an adjuvant for vaccine programs, was used for comparison. The natural Lipid-A product, purchased from AVANTI, contained a mixture of Lipid-A analogs extracted from Salmonella bacterial cell wall and is designated as Natural Lipid-A in this invention.
Thus, the liposomal formulations containing the synthetic lipopeptide antigen, BP1-148, and Lipid-A analogs 33, 48, 54, 58, 70, 77, 86, 94, 102, 104 or Natural Lipid-A, were used to immunize mice to measure their immune response in terms of T-cell blastogenesis and interferon-gamma (IFN-γ) production. The compounds were tested in three groups at different time and their preliminary results are shown separately in FIGS. 31-33. As the variations are attributed to different factors such as animal groups and experimental factors, the data from different groups will not be compared.
as §3

[3] = literature bioassays; cited from earlier work

Molecule | T-cell-Proliferation (CPM) (T-cell; Table 1, first test group) | T-cell blastogenesis (T-cell) | Interferon-gamma (IFN-γ, pg/ml) (Interferon-gamma (IFN-γ); Table 1, first test group) | interferon-gamma production (Interferon-gamma (IFN-γ)) | solubility [1] | T-cell-Proliferation (CPM) (T-cell; Table 2, second test group) | Interferon-gamma (IFN-γ, pg/ml) (Interferon-gamma (IFN-γ); Table 2, second test group) | also measured
CCCCCCCCCCCCCC(=O)N[C@@H](CC(=O)N[C@H]1C(O)O[C@H](CO)[C@@H](OP(=O)(O)O)[C@@H]1OC(=O)CCCCCCCCCCCCC)C(=O)NCCCCCCCCC (stereo partly drawn) [Compound 33, 2-Deoxy-4-O-phosphono-2-[(3S)-3-tetradecanamido-4-nonylamino-4-oxo-butanamido]-3-O-tetradecanoyl-α/β-D-glucopyranose] | 822 CPM | inactive | 0 pg/mL | inactive | poor solubility | – | – | –
CCCCCCCCCCCCCC(=O)N[C@@H](CC(=O)N[C@H]1[C@H](OC[C@H]2OC(O)[C@H](NC(=O)C[C@@H](CCCCCCCCCCC)OC(=O)CCCCCCCCCCCCC)[C@@H](O)[C@@H]2O)O[C@H](CO)[C@@H](OP(=O)(O)O)[C@@H]1OC(=O)C[C@@H](CCCCCCCCCCC)OC(=O)CCCCCCCCCCCCC)C(=O)NCCCCCCCCC (stereo partly drawn) [Compound 58, 2-Deoxy-6-O-{2-deoxy-2-[(3S)-3-tetradecanamido-4-nonylamino-4-oxo-butanamido]-4-O-phosphono-3-O-[(3R)-3-tetradecanoyloxytetradecanoyl]-β-D-glucopyranosyl}-2-[(3R)-3-tetradecanoyloxytetradecanamido]-α/β-D-glucopyranose] | 686 CPM | inactive | 0 pg/mL | inactive | poor solubility | – | – | –
CCCCCCCCCCCCCC(=O)N[C@@H](CC(=O)N[C@H]1[C@H](OC[C@H]2OC(O)[C@H](NC(=O)C[C@@H](CCCCCCCCCCC)OC(=O)CCCCCCCCCCCCC)[C@@H](OC(=O)C[C@H](O)CCCCCCCCCCC)[C@@H]2O)O[C@H](CO)[C@@H](OP(=O)(O)O)[C@@H]1OC(=O)C[C@@H](CCCCCCCCCCC)OC(=O)CCCCCCCCCCCCC)C(=O)NCCCCCCCCC (stereo partly drawn) [Compound 77, 2-Deoxy-6-O-{2-deoxy-2-[(3S)-3-tetradecanamido-4-nonylamino-4-oxo-butanamido]-4-O-phosphono-3-O-[(3R)-3-tetradecanoyloxytetradecanoyl]-β-D-glucopyranosyl}-3-O-[(3R)-3-hydroxytetradecanoyl]-2-[(3R)-3-tetradecanoyloxytetradecanamido]-α/β-D-glucopyranose] | – | inactive | – | inactive | poor solubility | 2565 CPM | 0 pg/mL | –
CCCCCCCCCCCCCC(=O)O[C@H](CCCCCCCCCCC)CC(=O)N[C@H]1[C@H](OC[C@H]2OC(O)[C@H](NC(=O)C[C@@H](CCCCCCCCCCC)OC(=O)CCCCCCCCCCCCC)[C@@H](OC(=O)C[C@H](O)CCCCCCCCCCC)[C@@H]2O)O[C@H](CO)[C@@H](OP(=O)(O)O)[C@@H]1OC(=O)C[C@@H](CCCCCCCCCCC)OC(=O)CCCCCCCCCCCCC (stereo partly drawn) [Compound 86, 2-Deoxy-6-O-{2-deoxy-4-O-phosphono-2-[(3R)-3-tetradecanoyloxytetradecanamido]-3-O-[(3R)-3-tetradecanoyloxytetradecanoyl]-β-D-glucopyranosyl}-3-O-[(3R)-3-hydroxytetradecanoyl]-2-[(3R)-3-tetradecanoyloxytetradecanamido]-α/β-D-glucopyranose] | – | significant T-cell blastogenesis | – | high levels of interferon-gamma | – | 52382 CPM | 36461 pg/mL | T-cell-Proliferation (CPM) (T-cell; Table 3, third test group): 15486 CPM; Interferon-gamma (IFN-γ, pg/ml) (Interferon-gamma (IFN-γ); Table 3, third test group): 17697 pg/mL; survival of the study (C57-Black mice; all three doses (50 μg, 10 μg, 2 μg) i.p., experiment terminated 4 days later): survived the study; No. Survived/No. Tested (+24 h) (C57-Black mice; dose 2/500 μg/μl i.p.): 3/3; No. Survived/No. Tested (+24 h) (C57-Black mice; dose 10/500 μg/μl i.p.): 3/3; No. Survived/No. Tested (+24 h) (C57-Black mice; dose 50/500 μg/μl i.p.): 3/3; toxicity compared to Natural Lipid-A product from Salmonella (C57-Black mice; in words, in vivo, C57-Black mice, Actinomycin D): much less toxic; also recorded: much lower; adjuvant activity compared to Natural Lipid-A (Lipid-A preparation of bacterial origin) ([2]; liposomal formulations with BP1-148 in mice, FIGS. 31-33): as effective; activity compared to the other synthetic Lipid-A analogs ([2]; second group (FIG. 32)): slightly more active
monophosphoryl Lipid-A | – | – | – | – | – | – | – | potency on a molar basis in eliciting toxic and pyrogenic responses, compared to diphosphoryl Lipid-A [3]: 1000 times less potent

From patent publication US7491707B1, “Synthetic lipid-a-analogs and uses thereof” (Biomira, Inc., priority 1999, dated 2009)
